Assays:
CCRF-CEM = assay: NCI-60 five-dose assay; type: cell-based, human; conditions: CCRF-CEM (Leukemia), 48 h
SR = assay: NCI-60 five-dose assay; type: cell-based, human; conditions: SR (Leukemia), 48 h
A549/ATCC = assay: NCI-60 five-dose assay; type: cell-based, human; conditions: A549/ATCC (Non-Small Cell Lung Cancer), 48 h
NCI-H522 = assay: NCI-60 five-dose assay; type: cell-based, human; conditions: NCI-H522 (Non-Small Cell Lung Cancer), 48 h
HCT-116 = assay: NCI-60 five-dose assay; type: cell-based, human; conditions: HCT-116 (Colon Cancer), 48 h
HT29 = assay: NCI-60 five-dose assay; type: cell-based, human; conditions: HT29 (Colon Cancer), 48 h
SNB-75 = assay: NCI-60 five-dose assay; type: cell-based, human; conditions: SNB-75 (CNS Cancer), 48 h
SK-MEL-28 = assay: NCI-60 five-dose assay; type: cell-based, human; conditions: SK-MEL-28 (Melanoma), 48 h
786-0 = assay: NCI-60 five-dose assay; type: cell-based, human; conditions: 786-0 (Renal Cancer), 48 h
A498 = assay: NCI-60 five-dose assay; type: cell-based, human; conditions: A498 (Renal Cancer), 48 h
CAKI-1 = assay: NCI-60 five-dose assay; type: cell-based, human; conditions: CAKI-1 (Renal Cancer), 48 h
TK-10 = assay: NCI-60 five-dose assay; type: cell-based, human; conditions: TK-10 (Renal Cancer), 48 h
PC-3 = assay: NCI-60 five-dose assay; type: cell-based, human; conditions: PC-3 (Prostate Cancer), 48 h
DU-145 = assay: NCI-60 five-dose assay; type: cell-based, human; conditions: DU-145 (Prostate Cancer), 48 h
MCF7 = assay: NCI-60 five-dose assay; type: cell-based, human; conditions: MCF7 (Breast Cancer), 48 h
MDA-MB-231 = assay: NCI-60 five-dose assay; type: cell-based, human; conditions: MDA-MB-231 (Breast Cancer), 48 h
MDA-MB-468 = assay: NCI-60 five-dose assay; type: cell-based, human; conditions: MDA-MB-468 (Breast Cancer), 48 h
[1] = tested on: Non-Small Cell Lung Cancer subpanel; assay: NCI-60 five-dose assay, subpanel; type: cell-based, human
Colon Cancer subpanel = assay: NCI-60 five-dose assay, subpanel; type: cell-based, human
CNS Cancer subpanel = assay: NCI-60 five-dose assay, subpanel; type: cell-based, human
BRAF^V600E = assay: biochemical
[2] = Homo sapiens, read-out: GI50 Conc. per Cell Line
[3] = Homo sapiens, read-out: LC50 (the source's name)

BRAF^V600E, sequence (P28028 whole entry V585E): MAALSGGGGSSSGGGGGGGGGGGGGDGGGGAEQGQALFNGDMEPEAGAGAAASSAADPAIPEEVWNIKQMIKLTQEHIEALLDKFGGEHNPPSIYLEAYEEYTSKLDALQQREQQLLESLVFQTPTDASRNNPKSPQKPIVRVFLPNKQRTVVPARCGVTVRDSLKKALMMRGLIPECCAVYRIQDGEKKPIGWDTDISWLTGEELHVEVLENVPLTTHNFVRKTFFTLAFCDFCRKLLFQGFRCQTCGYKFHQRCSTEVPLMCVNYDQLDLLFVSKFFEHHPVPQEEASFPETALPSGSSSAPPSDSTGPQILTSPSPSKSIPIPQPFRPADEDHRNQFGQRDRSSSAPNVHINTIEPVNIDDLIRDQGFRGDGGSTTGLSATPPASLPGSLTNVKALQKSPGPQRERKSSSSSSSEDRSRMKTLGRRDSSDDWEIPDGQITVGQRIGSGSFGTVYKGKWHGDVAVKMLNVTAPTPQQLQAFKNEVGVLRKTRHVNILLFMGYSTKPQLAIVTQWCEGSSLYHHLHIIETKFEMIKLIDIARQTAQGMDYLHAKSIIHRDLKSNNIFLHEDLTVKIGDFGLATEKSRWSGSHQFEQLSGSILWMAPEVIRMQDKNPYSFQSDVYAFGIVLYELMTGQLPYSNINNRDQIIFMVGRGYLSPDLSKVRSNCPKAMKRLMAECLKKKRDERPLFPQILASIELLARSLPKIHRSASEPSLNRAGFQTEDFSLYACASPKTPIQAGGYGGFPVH

`O=C(NN=Cc1ccc([N+](=O)[O-])cc1)c1ccc2[nH]c(-c3ccc(Cl)cc3)nc2c1` [Compound 4c, N′-(4-Nitrobenzylidene)-2-(4-chlorophenyl)-1H-benzimidazole-5-carbohydrazide] showed a TGI (CCRF-CEM) of 17.70 µM, a GI50 (CCRF-CEM; [2]) of 0.591 µM and a CC50 (CCRF-CEM; [3]) greater than 100 µM. For the same compound, the GI50 (SR; [2]) was 0.566 µM, the CC50 (SR; [3]) was greater than 100 µM and the TGI (SR) was 4.87 µM. It also gave a TGI (A549/ATCC) of 24.10 µM, a GI50 (A549/ATCC; [2]) of 3.98 µM and a CC50 (A549/ATCC; [3]) greater than 100 µM. It also gave a GI50 (NCI-H522; [2]) of 3.05 µM, a CC50 (NCI-H522; [3]) greater than 100 µM and a TGI (NCI-H522) of 11.70 µM. It also gave a TGI (HCT-116) of 6.90 µM, a GI50 (HCT-116; [2]) of 2.25 µM and a CC50 (HCT-116; [3]) of 82.3 µM. For the same compound, the TGI (HT29) was greater than 100 µM, the GI50 (HT29; Homo sapiens, HT-29, read-out: GI50 Conc. per Cell Line) was 3.02 µM and the CC50 (HT29; Homo sapiens, HT-29, read-out: LC50 (the source's name)) was greater than 100 µM. It also gave a GI50 (SNB-75; [2]) of 2.78 µM, a CC50 (SNB-75; [3]) greater than 100 µM and a TGI (SNB-75) of 18.00 µM. It also gave a GI50 (SK-MEL-28; [2]) of 2.6 µM, a CC50 (SK-MEL-28; [3]) of 39 µM and a TGI (SK-MEL-28) of 10.30 µM. The TGI (786-0) was 15.70 µM, the GI50 (786-0; [2]) was 3.92 µM and the CC50 (786-0; [3]) was 58.2 µM. It also gave a TGI (A498) of 7.75 µM, a GI50 (A498; [2]) of 2.4 µM and a CC50 (A498; [3]) of 36.4 µM. It also gave a TGI (CAKI-1) of 16.10 µM, a GI50 (CAKI-1; [2]) of 3.49 µM and a CC50 (CAKI-1; [3]) of 85.4 µM. For the same compound, the GI50 (TK-10; [2]) was 8.99 µM, the CC50 (TK-10; [3]) was greater than 100 µM and the TGI (TK-10) was 40.23 µM. The GI50 (PC-3; [2]) was 0.42 µM, the TGI (PC-3) was 15.30 µM and the TGI (DU-145) was 21.40 µM. The GI50 (DU-145; [2]) was 3.99 µM, the CC50 (DU-145; [3]) was greater than 100 µM and the GI50 (MCF7; [2]) was 0.582 µM. It also gave a CC50 (MCF7; [3]) of 13.3 µM, a TGI (MCF7) of 2.85 µM and a GI50 (MDA-MB-231; [2]) of 3.75 µM. The CC50 (MDA-MB-231; [3]) was 69.1 µM, the TGI (MDA-MB-231) was 13.90 µM and the GI50 (MDA-MB-468; [2]) was 1.97 µM. For the same compound, the TGI (MDA-MB-468) was 4.79 µM, the GI50 ([1]; Homo sapiens, Non-Small Cell Lung Cancer, average sensitivity of all subpanel cell lines, read-out: GI50 Subpanel MID b) was 3.52 µM and the “GI50 Selectivity Ratio (MID a/MID b)” value ([1]; Non-Small Cell Lung Cancer subpanel) was 0.93. For the same compound, the “GI50 Selectivity Ratio (MID a/MID b)” value (Colon Cancer subpanel; Colon Cancer subpanel) was 1.30, the GI50 (Colon Cancer subpanel; Homo sapiens, Colon Cancer, average sensitivity of all subpanel cell lines, read-out: GI50 Subpanel MID b) was 2.53 µM and the “GI50 Selectivity Ratio (MID a/MID b)” value (CNS Cancer subpanel; CNS Cancer subpanel) was 0.81. For the same compound, the GI50 (CNS Cancer subpanel; Homo sapiens, CNS Cancer, average sensitivity of all subpanel cell lines, read-out: GI50 Subpanel MID b) was 4.05 µM and the IC50 (BRAF^V600E) was 0.31 ± 0.07 µM.

Reference: PMC10819888, “Benzimidazole-Based Derivatives as Apoptotic Antiproliferative Agents: Design, Synthesis, Docking, and Mechanistic Studies” (Molecules, 2024)
